The target of one experiment is Abl (T315I) (Homo sapiens, UniProt P00519, T315I). In words: Abl kinase activity assay (fluorescent ELISA, AblTide substrate). The experiment is classed as biochemical. On the procedure:
The disclosed compounds were assayed for their ability to inhibit the activity of ABL kinase. Nunc Maxisorb plates are coated with streptavidin by overnight incubation with 100 μL per well of 1 μg/mL streptavidin in DPBS. Prior to the start of the experiment, the plates are washed with TBST (3×200 μL) and blocked for at least 3 hours by adding 150 μL of 5% BSA/TBST. The plates are washed with TBST (3×200 μL/well) and left dry immediately before the capture step.
The test articles and controls (Gleevec) are prepared using the following assay buffer @ 10× desired final concentration (50 mM Tris pH 7.0, 0.02 mg/ml BSA, 10 mM MgCl2, 0.1 mM Na3VO4, 1 mM EGTA, 0.01% NP-40, 1 mM DTT in 10% glycerol/water). In a reaction plate are added rapidly 5 μL test article (or control) and 30 μL ABL or ABL T315I (0.089 nM final concentration, in the above buffer). The plate is incubated for 20 minutes. To the reaction plate is added ATP (100 μM final concentration) and AblTide (128 nM final concentration) in a volume of 15 μL. The plate is incubated at room temperature for one hour.
From the reaction plate, 40 μL is transferred to the streptavidin coated plate. The capture plate is incubated at room temperature for 30 minutes then washed 3× with TBST. To the capture plate is added 100 μL/well of Cell Signaling anti-phospho tyrosine at a dilution of 1:3000 in 2% BSA/TBST. The plate is incubated for two hours at room temperature then washed 3× with TBST. To the capture plate is added 100 μL/well of Alkaline Phosphatase Tagged Goat anti Mouse Antibody at a dilution of 1:4000 in 2% BSA/TBST. The plate is incubated for one hour at room temperature then washed 3× with TBST.
The fluorescent readout was initiated by the addition of 100 μL/well of Attophos reagent (6 mg/10 mL). The reading was done on the Perkin Elmer Envision system.

The test system of the next experiment is MDA-MB-231. Nature of the experiment: MTS assay, MDA-MB-231. The settings on record: Homo sapiens, MDA-MB-231, 72 h. It is filed as cell-based. As for the experimental part:
(§1) Cells were maintained at 37° C., 5% CO2 in RPMI media supplemented with 1% fetal bovine serum, penicillin/streptomycin and fungizone (Invitrogen). Cells were seeded into 96-well tissue culture plates at 3000 per well and cultured at 37° C. for 18 h. Test compounds were dissolved and diluted to 300× in DMSO then diluted 1:40 in DMEM. Cells were incubated with test compounds for 72 hours followed by incubation with tetrazolium compound (3-(4,5-dimethylthiazol-2-yl)-5-(3-carboxymethoxyphenyl)-2-(4-sulfophenyl)-2H-tetrazolium, inner salt; MTS) and the electron coupling reagent, phenazine methosulfate (PMS) for 4 hours. […] The ability of compounds to inhibit cell growth in this assay is correlated with the reduction of dehydrogenase enzyme activity found in metabolically active cells. The measurement of the absorbance of the formazan was assessed using an ENVISION™ (Perkin Elmer) microplate reader at 492 nm. The calculated IC50 value is the concentration of the test compound that causes a 50% decrease in the absorbance.

Another experiment concerns DLD-1. Nature of the experiment: MTS assay, DLD-1. The settings on record: Homo sapiens, DLD-1, 72 h. The experiment is classed as cell-based. On the procedure: as §1
Another experiment deals with T1, FGFR2 (N549H) (Homo sapiens, UniProt P21802, N549H).
T1 construct: purchased Millipore 14-742
T1 sequence (P21802 22-821 N549H): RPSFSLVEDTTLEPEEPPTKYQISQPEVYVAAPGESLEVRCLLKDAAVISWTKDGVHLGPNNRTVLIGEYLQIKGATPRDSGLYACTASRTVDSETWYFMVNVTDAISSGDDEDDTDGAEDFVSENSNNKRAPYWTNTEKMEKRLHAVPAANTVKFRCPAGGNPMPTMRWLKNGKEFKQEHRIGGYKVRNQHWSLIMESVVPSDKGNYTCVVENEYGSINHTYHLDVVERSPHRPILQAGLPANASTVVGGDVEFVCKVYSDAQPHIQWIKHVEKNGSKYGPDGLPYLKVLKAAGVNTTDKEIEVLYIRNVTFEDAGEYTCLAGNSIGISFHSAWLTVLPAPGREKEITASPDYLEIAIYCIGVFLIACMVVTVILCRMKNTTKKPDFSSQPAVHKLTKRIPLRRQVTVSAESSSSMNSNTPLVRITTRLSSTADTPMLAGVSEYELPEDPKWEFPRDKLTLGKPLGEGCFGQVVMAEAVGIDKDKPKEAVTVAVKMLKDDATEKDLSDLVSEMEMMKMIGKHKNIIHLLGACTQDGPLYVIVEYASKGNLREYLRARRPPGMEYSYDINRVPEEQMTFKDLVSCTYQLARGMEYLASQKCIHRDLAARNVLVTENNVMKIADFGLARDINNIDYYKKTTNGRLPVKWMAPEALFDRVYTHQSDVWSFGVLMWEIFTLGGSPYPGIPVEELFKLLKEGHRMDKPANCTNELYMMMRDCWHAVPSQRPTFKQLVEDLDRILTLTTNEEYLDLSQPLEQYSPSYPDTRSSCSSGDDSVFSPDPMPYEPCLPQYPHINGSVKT
Nature of the experiment: FGFR2 kinase activity assay (fluorescent ELISA). The experiment is classed as biochemical. As for the experimental part: The enzymatic assays described herein are conducted according to the following procedures from commercially available reagents. In one, non limiting, example, a fluorescent ELISA assay is used to identify and characterize inhibitors of FGFR2 kinase as described herein. This heterogeneous assay utilizes a biotinylated peptide with a tyrosine motif as a substrate and an anti-phospho-tyrosine antibody to measure phosphorylation of the substrate. The reaction is initiated by adding the test compound, 37 μM Pyk2 substrate (Midwest Biotech, Cat. # MBT2383), 12.5 μM ATP (Roche, Cat. #11 140 965 001) and 0.5 μM FGFR2 enzyme (Millipore, Cat. #14-742) sequentially to a non-binding polypropylene V-well plate. All reagents are in an assay buffer consisting of: 50 mM Tris-HCL, 0.02 mg/ml BSA, 10 mM MgCl2, 0.1 mM Na3VO4, 1 mM EGTA, 75 μM ATP, 0.01% NP-40, 2 mM DTT and 10% glycerol. The reaction is incubated for 60 minutes. As the reaction proceeds, FGFR2 phosphorylates tyrosines in the peptide. The reaction mixture is then moved to a blocked streptavidin-coated Nunc Maxisorb plate (coated with 100 ng streptavidin from Pierce (Cat. #15-124) per well), allowing for the capture of the biotinylated peptide. Peptides are captured for 30 minutes at room temperature, the phosphorylation of peptides continues during this phase. The reaction is stopped by washing the streptavidin-coated plate 6 times with TBST. Phosphorylated peptide is detected by adding anti-phospho-tyrosine antibody (Cell Signaling, Cat. #9411, diluted 1:3000) to the streptavidin-coated plate. Unbound anti-phospho-tyrosine antibody is removed by washing the streptavidin-coated plate 6 times with TBST. Secondary detection is performed using alkaline phosphatase tagged goat anti-mouse antibody (Pierce, Cat. #31320, diluted 1:4000) for one hour. Unbound secondary antibody is removed by washing the streptavidin-coated plate 6 times with TBST. The fluorescent readout is initiated by adding to the streptavidin-coated plate Promega Attophos substrate (Promega, Cat. # S1000, dilution=6 mg/10 ml), which, when dephosphorylated by alkaline phosphatase, emits a fluorescent signal of 595 nm in wavelength when excited by a signal of 400 nm in wavelength. The reading of the 595 nm signal is done on the Perkin Elmer Envision system. Compounds which prevent FGFR2 from phosphorylating the peptide result in a lower fluorescent signal. The 595 nm fluorescent signal is directly proportional to the activity of FGFR2. Thus, the inhibition of FGFR2 by compounds is monitored by the decrease in the 595 nm fluorescent signal.
A general note: ELISA stands for enzyme-linked immunosorbent assay.

Our source for the inhibition values is patent publication US8563567B2, “Substituted heterocyclic compounds” (ArQule, Inc., priority 2009, dated 2013).

As to `COc1ccc(-c2[nH][nH]c(=O)c2-c2cn3c4c(cccc24)CCC3)cc1` [Compound 18, 4-(5,6-dihydro-4H-pyrrolo[3,2,1-ij]quinolin-1-yl)-5-(4-methoxyphenyl)-1,2-dihydro-3H-pyrazol-3-one], the inhibition at 10 µM against Abl (T315I) was determined as 9%; in the experiment with MDA-MB-231, 59%; in the experiment on DLD-1 it was 72%.
Consider `O=c1[nH][nH]c(C2CCCC2)c1-c1cn2c3c(cccc13)CCC2` [Compound 19, 5-cyclopentyl-4-(5,6-dihydro-4H-pyrrolo[3,2,1-ij]quinolin-1-yl)-1,2-dihydro-3H-pyrazol-3-one], for which the inhibition at 10 µM at Abl (T315I) amounted to 77%.
`CC(C)(C)Cc1[nH][nH]c(=O)c1-c1cn2c3c(cccc13)CCC2` [Compound 14, 4-(5,6-dihydro-4H-pyrrolo[3,2,1-ij]quinolin-1-yl)-5-(2,2-dimethylpropyl)-1,2-dihydro-3H-pyrazol-3-one]: the inhibition at 10 µM against Abl (T315I) was found to be 8%; with MDA-MB-231 it was 72%; in the experiment with DLD-1, 57%.
With `CCOc1ccc2ccccc2c1-c1[nH][nH]c(=O)c1-c1cn2c3c(cccc13)CCC2` [Compound 22, 4-(5,6-dihydro-4H-pyrrolo[3,2,1-ij]quinolin-1-yl)-5-(2-ethoxy-1-naphthyl)-1,2-dihydro-3H-pyrazol-3-one], the inhibition at 10 µM against Abl (T315I) was determined as 11%. In addition, the inhibition at 30 µM against FGFR2 (N549H) was 41%.
The like results for `O=c1[nH][nH]c(-c2ccccc2Br)c1-c1cn2c3c(cccc13)CCC2` [Compound 20, 5-(2-bromophenyl)-4-(5,6-dihydro-4H-pyrrolo[3,2,1-ij]quinolin-1-yl)-1,2-dihydro-3H-pyrazol-3-one] were, in that order, 87% and 45%.
For the compound `O=c1[nH][nH]c(-c2ccc(Cl)cc2Cl)c1-c1cn2c3c(cccc13)CCC2` [Compound 17, 5-(2,4-dichlorophenyl)-4-(5,6-dihydro-4H-pyrrolo[3,2,1-ij]quinolin-1-yl)-1,2-dihydro-3H-pyrazol-3-one], the inhibition at 10 µM was 81% against Abl (T315I) and 40% with DLD-1. Also, the inhibition at 30 µM against FGFR2 (N549H) was found to be 48%.
In the case of `O=c1[nH][nH]c(-c2ccccc2Cl)c1-c1cn2c3c(cccc13)CCC2` [Compound 15, 5-(2-chlorophenyl)-4-(5,6-dihydro-4H-pyrrolo[3,2,1-ij]quinolin-1-yl)-1,2-dihydro-3H-pyrazol-3-one], the inhibition at 10 µM on Abl (T315I) was 20%. Besides, the inhibition at 30 µM at FGFR2 (N549H) came out at 33%.
For the compound `COc1ccc(NC(=O)N2CCC(CNc3nccc(-c4cn5c6c(cccc46)CCC5)n3)CC2)c(OC)c1` [Compound 53, 4-((4-(5,6-dihydro-4H-pyrrolo[3,2,1-ij]quinolin-1-yl)pyrimidin-2-ylamino)methyl)-N-(2,4-dimethoxyphenyl)piperidine-1-carboxamide], the inhibition at 30 µM against FGFR2 (N549H) stood at 48%. For the same compound, the inhibition at 10 µM with MDA-MB-231 came out at 95%; in the experiment with DLD-1, 98%.
Turning to `c1cc2c3c(c1)c(-c1ccnc(N[C@H]4CCCNC4)n1)cn3CCC2` [Compound 37, (S)-4-(5,6-dihydro-4H-pyrrolo[3,2,1-ij]quinolin-1-yl)-N-(piperidin-3-yl)pyrimidin-2-amine], at FGFR2 (N549H), the inhibition at 30 µM was found to be 102%. In addition, the inhibition at 10 µM in the experiment with MDA-MB-231 and in the experiment with DLD-1 was 83% each time.
Consider `O=C(Nc1cccc(Cl)c1)N1CCC(CNc2nccc(-c3cn4c5c(cccc35)CCC4)n2)CC1` [Compound 49, N-(3-chlorophenyl)-4-((4-(5,6-dihydro-4H-pyrrolo[3,2,1-ij]quinolin-1-yl)pyrimidin-2-ylamino)methyl)piperidine-1-carboxamide], for which the inhibition at 30 µM against FGFR2 (N549H) was found to be 58%. In addition, the figures for the inhibition at 10 µM in the experiment on MDA-MB-231 and in the experiment on DLD-1 were 85% and 96%, respectively.
For `Cc1ccc(NC(=O)N2CCC(CNc3nccc(-c4cn5c6c(cccc46)CCC5)n3)CC2)cc1` [Compound 45, 4-((4-(5,6-dihydro-4H-pyrrolo[3,2,1-ij]quinolin-1-yl)pyrimidin-2-ylamino)methyl)-N-p-tolylpiperidine-1-carboxamide], the inhibition at 30 µM at FGFR2 (N549H) was 64%. Moreover, the inhibition at 10 µM with MDA-MB-231 was determined as 72%; with DLD-1, 94%.
The like results for `O=C(Nc1ccccc1OC(F)F)N1CCC(CNc2nccc(-c3cn4c5c(cccc35)CCC4)n2)CC1` [Compound 50, N-(2-(difluoromethoxy)phenyl)-4-((4-(5,6-dihydro-4H-pyrrolo[3,2,1-ij]quinolin-1-yl)pyrimidin-2-ylamino)methyl)piperidine-1-carboxamide] were, in that order, 55%, 53% and 55%.
In the case of `O=c1[nH][nH]c(-c2cccc(F)c2)c1-c1cn2c3c(cccc13)CCC2` [Compound 21, 4-(5,6-dihydro-4H-pyrrolo[3,2,1-ij]quinolin-1-yl)-5-(3-fluorophenyl)-1,2-dihydro-3H-pyrazol-3-one], the inhibition at 10 µM at Abl (T315I) is 79%. Further, the inhibition at 30 µM against FGFR2 (N549H) is 75%.
`CC(C)c1[nH][nH]c(=O)c1-c1cn2c3c(cccc13)CCC2` [Compound 23, 4-(5,6-dihydro-4H-pyrrolo[3,2,1-ij]quinolin-1-yl)-5-isopropyl-1,2-dihydro-3H-pyrazol-3-one]: the inhibition at 10 µM against Abl (T315I) amounted to 8%.
As to `CCOC(=O)c1ccc(NC(=O)N2CCC(CNc3nccc(-c4cn5c6c(cccc46)CCC5)n3)CC2)cc1` [Compound 40, ethyl 4-(4-((4-(5,6-dihydro-4H-pyrrolo[3,2,1-ij]quinolin-1-yl)pyrimidin-2-ylamino)methyl)piperidine-1-carboxamido)benzoate], the inhibition at 30 µM against FGFR2 (N549H) was found to be 68%. For the same compound, the inhibition at 10 µM with MDA-MB-231 was found to be 99%; in the experiment on DLD-1, 98%.
Regarding `O=c1[nH][nH]c(-c2cn3c4c(cccc24)CCC3)c1-c1c[nH]c2ccccc12` [Compound 4, 5-(5,6-dihydro-4H-pyrrolo[3,2,1-ij]quinolin-1-yl)-4-(1H-indol-3-yl)-1,2-dihydro-3H-pyrazol-3-one], at Abl (T315I), the inhibition at 10 µM was determined as 63%. Moreover, the inhibition at 30 µM against FGFR2 (N549H) was 96%.

A word on the inhibition: it is the relative decrease from the control value, in per cent.
